This experiment addresses T1, human TLR8 (Homo sapiens, UniProt Q9NR97).
T1 sequence (Q9NR97 27-1041): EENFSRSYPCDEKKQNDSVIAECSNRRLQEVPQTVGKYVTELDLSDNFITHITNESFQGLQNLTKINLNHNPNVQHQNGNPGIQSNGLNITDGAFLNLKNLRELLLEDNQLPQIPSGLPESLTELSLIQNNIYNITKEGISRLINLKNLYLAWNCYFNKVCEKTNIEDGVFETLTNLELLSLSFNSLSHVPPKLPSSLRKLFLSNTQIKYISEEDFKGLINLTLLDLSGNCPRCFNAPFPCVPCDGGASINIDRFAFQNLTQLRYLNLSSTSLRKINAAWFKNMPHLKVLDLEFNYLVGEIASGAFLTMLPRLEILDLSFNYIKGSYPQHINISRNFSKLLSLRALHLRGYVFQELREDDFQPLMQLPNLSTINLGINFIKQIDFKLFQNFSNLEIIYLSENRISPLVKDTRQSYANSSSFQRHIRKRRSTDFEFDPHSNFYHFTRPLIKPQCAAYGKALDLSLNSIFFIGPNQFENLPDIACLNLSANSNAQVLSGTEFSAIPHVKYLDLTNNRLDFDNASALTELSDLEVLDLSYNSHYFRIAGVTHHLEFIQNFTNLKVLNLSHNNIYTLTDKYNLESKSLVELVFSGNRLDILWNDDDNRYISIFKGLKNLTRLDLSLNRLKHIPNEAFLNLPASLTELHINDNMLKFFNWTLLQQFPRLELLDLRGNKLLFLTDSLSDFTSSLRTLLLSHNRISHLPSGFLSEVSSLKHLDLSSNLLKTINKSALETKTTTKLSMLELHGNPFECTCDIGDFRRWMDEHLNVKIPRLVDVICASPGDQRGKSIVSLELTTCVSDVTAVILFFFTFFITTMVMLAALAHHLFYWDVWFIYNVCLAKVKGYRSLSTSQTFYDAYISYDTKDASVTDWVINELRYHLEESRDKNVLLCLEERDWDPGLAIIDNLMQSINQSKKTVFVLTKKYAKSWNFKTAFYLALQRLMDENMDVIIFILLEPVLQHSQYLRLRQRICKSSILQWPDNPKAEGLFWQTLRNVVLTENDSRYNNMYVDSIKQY
The experiment can be described thus: HEK293-Blue-hTLR-8 cells assay (SEAP reporter, R848 stimulation). The format is cell-based. To be noted: HEK293-Blue-hTLR8 cells, R848 ligand, 20 hrs incubation. In short, it runs like this: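 Antagonist mode: HEK293-Blue-hTLR8 cells with serially diluted compound (1% DMSO final) plus R848 (10 μL of 60 uM stock) for 20 hrs at 37° C. Supernatant NF-κB/AP-1-driven SEAP measured with QUANTI-Blue substrate, 2 hrs at 37° C, absorbance 620–655 nm.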
On to `C[C@@H]1CN(c2ccc(C#N)n3nccc23)C[C@H](CN2CCCC3(CCNCC3)C2)O1` [Example 32, 4-[(2S,6R)-2-(2,9-diazaspiro[5.5]undecan-2-ylmethyl)-6-methyl-morpholin-4-yl]pyrazolo[1,5-a]pyridine-7-carbonitrile], for which the IC50 worked out at 91 nM.

`C[C@@H]1CN(c2ccc(C#N)n3nccc23)C[C@H](CN2CC3CCNCC3C2)O1` (stereo partly drawn) [Example 49, 4-[(2S,6R)-2-(1,3,3a,4,5,6,7,7a-octahydropyrrolo[3,4-c]pyridin-2-ylmethyl)-6-methyl-morpholin-4-yl]pyrazolo[1,5-a]pyridine-7-carbonitrile] came in with a half-inhibitory concentration (IC50) of 150 nM.

The compound `C[C@@H]1CN(c2ccc(C#N)n3nccc23)C[C@H](CN2CCC(N)CC2)O1` [Example 17, 4-[(2S,6R)-2-[(4-amino-1-piperidyl)methyl]-6-methyl-morpholin-4-yl]pyrazolo[1,5-a]pyridine-7-carbonitrile] had an IC50 of 58 nM.

In turn, `C[C@@H]1CN(c2ccc(C#N)n3nccc23)C[C@H](CN2CC[C@H](N)[C@H](C)C2)O1` [Example 74, 4-[(2S,6R)-2-[[(3R,4S)-4-amino-3-methyl-1-piperidyl]methyl]-6-methyl-morpholin-4-yl]pyrazolo[1,5-a]pyridine-7-carbonitrile] registered an IC50 of 39 nM.

In the case of `CC1CNCCN1C[C@H]1CN(c2ccc(C#N)n3nccc23)C[C@@H](C)O1` (single isomer, unassigned) [Example 50B], the IC50 was determined as 52 nM.

As usually defined, the IC50 is the concentration needed to halve the response being measured.

(Values after patent publication US20220112187A1, “PYRAZOLOPYRIDINE AMINE COMPOUNDS FOR THE TREATMENT OF AUTOIMMUNE DISEASE” (Hoffmann-La Roche Inc., priority 2018, published 2022).)
